From patent US4713376A, “Dementia-improving and therapeutic agents” (Toyama Chemical Co., Ltd., priority 1985, dated 1987)

Assays:
[1] = Mouse acute toxicity by intraperitoneal injection; conditions: in vivo, ip
Source text: (§1) Next, among the present compounds [I], α-acetoxy-α-methylaceticacid trimethylammonioethyl ester toluene-4-sulfonate (hereinafter referred to as ALT) and bis(α-acetoxy-α-methylacetic acid trimethylammonioethyl ester) naphthalene-1,5-disulfonate (general name: aclatonium napadisilate) were […] for mouse acute toxicity by intraperitoneal injection as well as for hygroscopicity and stability.

[2] = format: physicochemical; conditions: 10 days, relative humidity 55%; for Appearance: room temperature (30° C.); for Decomposition percentage: hydroxylamine method, 30° C.
Protocol: as §1
(§2) Stored for 10 days at room temperature (30° C.) at a relative
*2 Measured in accordance with the hydroxylamine method for ester (Jikken
Kagaku Koza, Vol. 24 Seibutsu Kagaku II, p 253 to 255, Maruzen).
Decomposition percentage (%) = [1 - (absorbance of test
sample)/(absorbance of standard solution)] × 100

[3] = Hygroscopicity on storage; format: physicochemical; conditions: (Increased weight)/(Original weight) × 100; 10 days, 30° C., relative humidity 55%
Protocol: as §1, §2
*1 Hygroscopicity (%) = (Increased weight)/(Original weight) × 100

[4] = Transference into brain and stimulation of cerebral metabolism; conditions: in vivo
[5] = tested on: patients; experiment: Side effects in the clinical cases; format: in vivo; conditions: all of the above clinical cases
[6] = tested on: senile dementia of Alzheimer's type; experiment: Clinical cases, overall improvement degree and neuropsychiatric symptoms, senile dementia of Alzheimer's type; format: in vivo, patients
Protocol: (§3) The degree of dementia was diagnosed in patients on the basis of DSM-III criteria with reference to the neuropsychiatric symptoms and findings of the CT scan of the head regions.
(§4) The overall improvement degree of the present drug was evaluated from the neuropsychiatric symptoms, scores of activity of daily living and Hasegawa's rating scales.
Case three senile dementia of Alzheimer's type (Overall severity: Marked high degree)
They began to have a forgetfulness from approx. 4 years ago, and became spiritless and became unable to work, and became not to express their feeling, and had wanderling impulsion. The cerebral atrophy was generally noted by the finding of CT scan of head regions at the admission.
Case four senile dementia of Alzheimer's type (Overall severity: Marked high degree)
They had occasionally a forgetfulness from approx. 10 years ago, and became unable to do agricultural work from approx. 4 years ago. The diffuse cerebral atrophy was noted by the finding of CT scan of head regions at the admission.
Case five senile dementia of Alzheimer's type (Overall severity: Moderate degree)
They began to have a forgetfulness from approx. 2 years ago, and became unable to do household affairs from 1 year ago, and became unable to distinguish their familial faces. The cerebral atrophy and enlargement of cerebral ventricle were noted by the finding of CT scan of head regions at the admission. The treatment was changed to the administration of 300 mg/day of the present drug because the efficacy was ineffective with other cerebral metabolic improvement drugs and cerebral-vasodilators.
Case one senile dementia of Alzheimer's type (overall severity: Moderate degree)
They began to have a forgetfulness and spiritlessness after operation of fracture of neck of femur from 10 years ago. The disorientation was strongly noted from 2-3 years ago. The cerebral atrophy and enlargement of cerebral ventricle were noted by the finding of CT scan of head regions at the admission. The efficacy was ineffective with other various drugs than the present drug.

[7] = tested on: dementia; experiment: Neuropsychiatric symptoms accompanying dementia and cognitive function, summary of clinical cases; format: in vivo, patients
Protocol: as §3, §4

[8] = tested on: Alzheimer's disease; experiment: Clinical case, overall improvement degree and neuropsychiatric symptoms, Alzheimer's disease; format: in vivo, patients
Protocol: as §3, §4
Case two a person, Alzheimer's disease (Overall severity: Moderate degree)
They became occasionally aware of slight change of character from 8 years ago, and they lived without specific changes, but they became spiritless and not to express their feeling from 3 years ago. At the admission, they could not work entirely and was spiritless, and had contact disturbance with other patients, and decrease of memory power and judgement power were noted. […] The atrophy of anterior lobe was remarkably noted at the finding of CT scan of head regions at the admission.

With `CC(=O)OC(C)C(=O)OCC[N+](C)(C)C.Cc1ccc(S(=O)(=O)[O-])cc1` (stereo not drawn) [ALT, α-acetoxy-α-methylaceticacid trimethylammonioethyl ester toluene-4-sulfonate] the LD50 [1] was 657 mg/kg, the Appearance [2] was “No change” and the Decomposition percentage [2] was 0.5%. For the same compound, the Hygroscopicity [3] was 0.6%.

With `CC(=O)OC(C)C(=O)OCC[N+](C)(C)C` (stereo not drawn) [Aclatonium napadisilate, bis(α-acetoxy-α-methylacetic acid trimethylammonioethyl ester) naphthalene-1,5-disulfonate] the LD50 [1] was 636 mg/kg, the cerebral metabolism [4] was “stimulated” and the transference into brain [4] was “found”. For the same compound, the side effect [5] was “no side effect”, the “neuropsychiatric symptoms and activity of daily living” value ([6]; Clinical Case 1, 300 mg/day, 2nd week) was “they could gait to outside of room at the 2nd week, and their movement behavior was improved, and spontaneousness increased and feeling became clear” and the overall improvement degree ([6]; Clinical Case 1, Marked high degree, 300 mg/day) was “improvement”. The “neuropsychiatric symptoms (spontaneousness, conversation)” value ([6]; Clinical Case 2) was “spontaneousness increased, and conversation with other patients increased, and they had favorable communication and became fortunate”, the overall improvement degree ([6]; Clinical Case 2, Marked high degree) was “slight improvement” and the “decrease of spontaneousness and disturbance of emotion” value ([6]; Clinical Case 3, 300 mg/day) was “improved”. The intellectual function ([6]; Clinical Case 3, 300 mg/day) was “No changes”, the “activity of daily living and expression” value ([6]; Clinical Case 3, 300 mg/day, approx. 2nd week after administration) was “they became able to sit and gait, and eat food by themself and expression became clear” and the overall improvement degree ([6]; Clinical Case 3, Moderate degree, 300 mg/day) was “slight improvement”. The “conversation frequency and activity of daily living” value ([6]; Clinical Case 4, 300 mg/day, from the 2nd week) was “their conversation frequency with other patients increased and they became able to go out from their room and occasionally go to toilet”, the overall improvement degree ([6]; Clinical Case 4, Moderate degree, 300 mg/day) was “slight improvement” and the Appearance [2] was “No change”. For the same compound, the Decomposition percentage [2] was 0.2%, the Hygroscopicity [3] was 0.1% and the “effect on cognitive function” value ([7]; clinical cases) was “has not been confirmed at this time”. The “improvement of neuropsychiatric symptoms accompanying dementia” value ([7]; clinical cases) was “effective”, the clinical effect ([7]; human, in vivo) was “confirmed” and the “effect on severe dementia” value ([7]; human, in vivo) was “confirmed”. For the same compound, the defecation ([8]; Clinical Case 5) was “defecation became smooth”, the “movement frequency and spontaneousness” value ([8]; Clinical Case 5, 4th week) was “increase of movement frequency and improvement of decrease of spontaneousness” and the overall improvement degree ([8]; Clinical Case 5, Moderate degree) was “improvement”.
